System: 171881-019-R-J1-PDC tumor spheroids, viability
Assay: Anticancer human tumor 171881-019-R-J1-PDC patient-derived invasive breast carcinoma cell line growth inhibition [GQUAD]
Conditions: spheroids with HUVEC and MSC; for IC50: curve of first compound; for viability, T/C: stronger effect = lower value
In short: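 Tumor cells were grown as complex spheroids with HUVEC endothelial cells and mesenchymal stem cells as stroma. G-quadruplex stabilizers were combined with targeted agents over half-log dilutions from near the clinical Cmax, or from 10 microM.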

[1] = second compound 0.0316 µM, first compound 0.0316 µM
[2] = second compound 0.0316 µM, first compound 0.1 µM
[3] = second compound 0.0316 µM, first compound 0.316 µM
[4] = second compound 0.0316 µM, first compound 1 µM
[5] = second compound 0.0316 µM, first compound 3.16 µM
[6] = second compound 0.0316 µM, first compound 10 µM
[7] = second compound 0.1 µM, first compound 0.0316 µM
[8] = second compound 0.1 µM, first compound 0.1 µM
[9] = second compound 0.1 µM, first compound 0.316 µM
[10] = second compound 0.1 µM, first compound 1 µM
[11] = second compound 0.1 µM, first compound 3.16 µM
[12] = second compound 0.1 µM, first compound 10 µM
[13] = second compound 0.316 µM, first compound 0.0316 µM
[14] = second compound 0.316 µM, first compound 0.1 µM
[15] = second compound 0.316 µM, first compound 0.316 µM
[16] = second compound 0.316 µM, first compound 1 µM
[17] = second compound 0.316 µM, first compound 3.16 µM
[18] = second compound 0.316 µM, first compound 10 µM
[19] = second compound 1 µM, first compound 0.0316 µM
[20] = second compound 1 µM, first compound 0.1 µM
[21] = second compound 1 µM, first compound 0.316 µM
[22] = second compound 1 µM, first compound 1 µM
[23] = second compound 1 µM, first compound 3.16 µM
[24] = second compound 1 µM, first compound 10 µM
[25] = second compound 3.16 µM, first compound 0.0316 µM
[26] = second compound 3.16 µM, first compound 0.1 µM
[27] = second compound 3.16 µM, first compound 0.316 µM
[28] = second compound 3.16 µM, first compound 1 µM
[29] = second compound 3.16 µM, first compound 3.16 µM
[30] = second compound 3.16 µM, first compound 10 µM
[31] = second compound 10 µM, first compound 0.0316 µM
[32] = second compound 10 µM, first compound 0.1 µM
[33] = second compound 10 µM, first compound 0.316 µM
[34] = second compound 10 µM, first compound 1 µM
[35] = second compound 10 µM, first compound 3.16 µM
[36] = second compound 10 µM, first compound 10 µM
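Also: spheroids exposed to compounds for 7 days.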
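For viability, T/C in this document: 100% = DMSO vehicle control viability.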

Q: How did the IC50 (second compound 0.0316 µM) turn out when `COc1ncnc(C2CC2)c1-c1ncc2cnn(Cc3ccc(-c4nc(C(F)(F)F)cn4C(C)C)cc3)c2n1` + Cc1cnc(CNC(=O)c2c(=O)c3ccc(N4CCCN(C)CC4)nc3n3c2sc2ccccc23)cn1 was run?
A: > 10 µM

Q: And the IC50 (second compound 0.1 µM)?
A: > 10 µM

Q: What about the IC50 (second compound 0.316 µM) of the same compound?
A: > 10 µM

Q: What about the IC50 (second compound 1 µM) of the same compound?
A: > 10 µM

Q: What about the IC50 (second compound 3.16 µM) of the same compound?
A: > 10 µM

Q: What about the IC50 (second compound 10 µM) of the same compound?
A: > 10 µM

Q: What about the viability, T/C [1] of the same compound?
A: 93.6%

Q: And the viability, T/C [2]?
A: 85.3%

Q: And the viability, T/C [3]?
A: 82.4%

Q: What about the viability, T/C [4] of the same compound?
A: 85.4%

Q: What about the viability, T/C [5] of the same compound?
A: 92%

Q: What about the viability, T/C [6] of the same compound?
A: 87%

Q: What about the viability, T/C [7] of the same compound?
A: 76.2%

Q: What about the viability, T/C [8] of the same compound?
A: 83%

Q: And the viability, T/C [9]?
A: 70%

Q: And the viability, T/C [10]?
A: 81.7%

Q: What about the viability, T/C [11] of the same compound?
A: 73.9%

Q: What about the viability, T/C [12] of the same compound?
A: 71.2%

Q: What about the viability, T/C [13] of the same compound?
A: 72.1%

Q: And the viability, T/C [14]?
A: 74.3%

Q: And the viability, T/C [15]?
A: 69.5%

Q: And the viability, T/C [16]?
A: 65.8%

Q: And the viability, T/C [17]?
A: 71.1%

Q: And the viability, T/C [18]?
A: 63.3%

Q: What about the viability, T/C [19] of the same compound?
A: 69%

Q: And the viability, T/C [20]?
A: 61.3%

Q: And the viability, T/C [21]?
A: 62.3%

Q: What about the viability, T/C [22] of the same compound?
A: 62.6%

Q: And the viability, T/C [23]?
A: 63.5%

Q: What about the viability, T/C [24] of the same compound?
A: 66.2%

Q: And the viability, T/C [25]?
A: 67.3%

Q: And the viability, T/C [26]?
A: 57.6%

Q: What about the viability, T/C [27] of the same compound?
A: 61.2%

Q: What about the viability, T/C [28] of the same compound?
A: 56.4%

Q: What about the viability, T/C [29] of the same compound?
A: 62%

Q: And the viability, T/C [30]?
A: 66.2%

Q: What about the viability, T/C [31] of the same compound?
A: 53.4%

Q: What about the viability, T/C [32] of the same compound?
A: 56.9%

Q: What about the viability, T/C [33] of the same compound?
A: 54.2%

Q: And the viability, T/C [34]?
A: 57.3%

Q: What about the viability, T/C [35] of the same compound?
A: 63.1%

Q: And the viability, T/C [36]?
A: 56.3%

Q: How did the IC50 (second compound 0.0316 µM) turn out when `CC(=O)O[C@H]1C(=O)[C@@]2(C)[C@H]([C@H](OC(=O)c3ccccc3)[C@]3(O)C[C@H](OC(=O)[C@H](O)[C@@H](NC(=O)c4ccccc4)c4ccccc4)C(C)=C1C3(C)C)[C@]1(OC(C)=O)CO[C@@H]1C[C@@H]2O` + Cc1cnc(CNC(=O)c2c(=O)c3ccc(N4CCCN(C)CC4)nc3n3c2sc2ccccc23)cn1 was run?
A: < 0.0316 µM

Q: What about the IC50 (second compound 0.1 µM) of the same compound?
A: < 0.0316 µM

Q: And the IC50 (second compound 0.316 µM)?
A: < 0.0316 µM

Q: What about the IC50 (second compound 1 µM) of the same compound?
A: < 0.0316 µM

Q: What about the IC50 (second compound 3.16 µM) of the same compound?
A: < 0.0316 µM

Q: What about the IC50 (second compound 10 µM) of the same compound?
A: < 0.0316 µM

Q: What about the viability, T/C [1] of the same compound?
A: 37.4%

Q: And the viability, T/C [2]?
A: 29.4%

Q: And the viability, T/C [3]?
A: 27.8%

Q: And the viability, T/C [4]?
A: 26%

Q: And the viability, T/C [5]?
A: 24.2%

Q: And the viability, T/C [6]?
A: 26.7%

Q: And the viability, T/C [7]?
A: 43.9%

Q: What about the viability, T/C [8] of the same compound?
A: 38%

Q: What about the viability, T/C [9] of the same compound?
A: 31.3%

Q: And the viability, T/C [10]?
A: 33.2%

Q: What about the viability, T/C [11] of the same compound?
A: 31.9%

Q: And the viability, T/C [12]?
A: 32.9%

Q: What about the viability, T/C [13] of the same compound?
A: 51.2%

Q: What about the viability, T/C [14] of the same compound?
A: 44.1%

Q: And the viability, T/C [15]?
A: 39.5%

Q: And the viability, T/C [16]?
A: 35%

Q: What about the viability, T/C [17] of the same compound?
A: 37.1%

Q: And the viability, T/C [18]?
A: 38.5%

Q: What about the viability, T/C [19] of the same compound?
A: 51.9%

Q: What about the viability, T/C [20] of the same compound?
A: 45.4%

Q: And the viability, T/C [21]?
A: 47%

Q: What about the viability, T/C [22] of the same compound?
A: 40.1%

Q: And the viability, T/C [23]?
A: 45%

Q: And the viability, T/C [24]?
A: 50.5%

Q: What about the viability, T/C [25] of the same compound?
A: 51.9%

Q: What about the viability, T/C [26] of the same compound?
A: 46.5%

Q: What about the viability, T/C [27] of the same compound?
A: 47%

Q: And the viability, T/C [28]?
A: 44.2%

Q: And the viability, T/C [29]?
A: 50.8%

Q: What about the viability, T/C [30] of the same compound?
A: 49.9%

Q: What about the viability, T/C [31] of the same compound?
A: 46.6%

Q: And the viability, T/C [32]?
A: 48.4%

Q: What about the viability, T/C [33] of the same compound?
A: 46%

Q: What about the viability, T/C [34] of the same compound?
A: 47.6%

Q: And the viability, T/C [35]?
A: 50.3%

Q: And the viability, T/C [36]?
A: 51.9%

Reference: PubChem BioAssay AID2060498 (Molecular Pharmacology Branch, DTP, NCI, 2025)
